This is an account of results in patent US20250177481A1, “SCO-spondin-derived polypeptides for enhancing synaptic transmission” (AXOLTIS PHARMA, priority 2021, published 2025).

Assay [1] concerns Schaffer collateral-CA1 synaptic transmission in mouse hippocampal slices after OGD. As to the kind of experiment: fEPSP recovery after oxygen-glucose deprivation (OGD) in hippocampal slices, treatment during OGD (Example 7). It is filed as cell-based, C57Bl6/J mice. The note with it: NX218 250 μg/mL during OGD, n=9 slices. How it is done:
Acute episodes of hypoxia may cause a depression in synaptic activity in many brain regions. […] To meet this goal, functional recovery was assessed by recording evoked field excitatory postsynaptic potentials (fEPSPs) in mouse hippocampal neurons, before and after oxygen-glucose deprivation (OGD).
Experiments were carried out with 4-5 weeks old male C57Bl6/J mice (approximately 20 grams) obtained from Charles River, France. In total, 9 mice were used in this study. Two slices were recorded from each mouse (one for the control condition and another for the NX218 condition). Animals were acclimated to laboratory housing conditions for 13 days prior to experimental use. Standard Food (Type a04, SAFE, France) was available ad libitum. Filtered mains drinking water ([…]) was available ad libitum.
Sagittal hippocampal brain slices were obtained using standard brain slicing methods (approximately 6 slices per mouse) (Knobloch et al. 2007). Mice were anesthetized with 5% isoflurane and then decapitated. Brain was dissected out of the cranium and immediately immersed in ice-cold freshly prepared artificial cerebrospinal fluid (aCSF) containing: 124 mM NaCl, 3.75 mM KCl, 2 mM MgSO4, 2 mM CaCl2, 26.5 mM NaHCO3, 1.25 mM NaH2PO4, 10 mM glucose, continuously oxygenated (95% O2, 5% CO2) (pH=7.4) for a total duration of 3-4 minutes. Acute slices (350 μm thick) were prepared using a vibratome (VT 1000S; Leica Microsystems, Bannockburn, IL). […]
For electrophysiological recordings, a single slice was placed in the recording chamber (room temperature), submerged and continuously superfused with gassed aCSF (95% O2, 5% CO2; pH=7.4) at a constant rate (2 mL min^−1) for the reminder of the experiment. Extracellular field excitatory postsynaptic potentials (fEPSPs) were recorded in the CA1 stratum radiatum using a glass micropipette filled with aCSF. fEPSPs were evoked by the electrical stimulation of Schaffer collateral-commissural pathway at 0.1 Hz (i.e., a single pulse every 10 s) with a glass stimulating electrode (borosilicate capillary glass with filament, standard wall; OD: 1.5 mm; ID: 0.86 mm; Length: 75 mm; ref: W3 30-0060 from Harvard Apparatus) placed in the stratum radiatum.
At the beginning of each experiment (when a stable fEPSP response was reached), Input/Output (I/O) curves were obtained by gradual increases in stimulus intensity (from 0 to 100 μA, 10 μA intervals) to determine the intensity of stimulation that was kept for the reminder of the experiment. Stable baseline fEPSPs was then recorded during 10 minutes by stimulating at 80% of maximal field amplitude (single pulse every 10 s, i.e., 0.1 Hz). […]

The subject of assay [2] is pCREB. The assay can be described thus: pCREB protein level in cortical samples of subchronic PCP mice (WES automated protein analysis). The assay is classed as in vivo, Swiss CD-1 mice. The note with it: PCP + NX218 5 mg/kg D14; PCP alone 44.17; n=5. How it is done: PCP (or saline for control group) was administered at a dose of 0.2 mg/kg by subcutaneous injections twice daily for 12 days (day 0 to day 11).
Approximately 5 minutes after the test, mice were anaesthetized with 5% isoflurane oxygen mixture. Brains were extracted immediately, then the cortex of each hemisphere were collected. Right and left cortices were transferred into clean pre-labelled microtubes and the exact weight of each sample was recorded. Finally, samples were stored at −80° C. for further analysis.
Brain samples were lysed with a defined buffer lysis consisting of CelLyticMT reagent with 1% of protease and phosphatase inhibitor cocktail (60 μL per well). Lysates were processed at +4° C. and stored at −80° C. at the end of the experiment. For each sample, the quantity of proteins was determined using the micro kit BCA (Pierce). Briefly, lysates were centrifuged and diluted at 1/20 in PBS and mixed, in equal volume, with a micro BCA. After an incubation at 60° C. for 1 hour, the quantity of proteins was measured at 562 nm with a spectrophotometer Nanovue (GE Healthcare) and compared with the standard of Bovine Serum Albumin curve (BSA, Pierce).
Automated protein analysis were performed using the WES™ system (ProteinSimple®): […]
Each protein was evaluated independently. […] 5 samples (biological replicates) per condition were analyzed.

“And” between values parts separate entries of the source, which are not always exact repeats. Equal entries are not always repeated. Positions of bridges follow the written chain, without caps; N, C: chain ends. No end group written: not given here.

“W-S-G-W-S-S-C-S-R-S-C-G [NX218] (WSGWSSCSRSCG; disulfide 7-11 (inferred))”: the “averaged normalized f-EPSP slope” value is 31.043 % of baseline in assay [1] (0-30 min after start of OGD, vehicle 31.618); 61.7±5.0 % of baseline and 61.663 % of baseline in assay [1] (30-60 min after start of OGD, vehicle 47.152); 88.0±2.6 % of baseline and 87.959 % of baseline in assay [1] (60-90 min after start of OGD, vehicle 69.598); 92.6±2.4 % of baseline and 92.639 % of baseline in assay [1] (last 10 min (of 90 min) after start of OGD, vehicle 72.432). In assay [2], the “pCREB protein level in cortical samples” value is 68.67 % of control.
